Assays:
[1] = test system: neuropathic pain; settings: known efficacy in human neuropathic pain; cited from earlier work
[2] = test system: rats; experiment: fMRI of CNS activation in rats following heat stimulus; type: in vivo, rat; settings: compared to placebo group, FIG. 6, FIG. 7
Protocol: The methods of the invention may employ non-human mammals, e.g., rats, as the subjects, in which experimental therapeutic interventions are evaluated. […] The left panels show serial coronal slices through the brain. The overall level of activation was decreased in the gabapentin group compared to the placebo group. The right panels show differences in activation in specific circuitry known to be involved in pain processing that was affected in somatosensory regions (SI), emotional regions (nucleus accumbens—NAc), autonomic regions (hypothalamus), and endogenous analgesic regions (periaqueductal gray).

[3] = test system: healthy subjects; experiment: fMRI of CNS activation in healthy subjects after a thermal stimulus (>44° C.); type: in vivo, human; settings: compared with the placebo response, FIG. 2
Protocol: The methods of the invention generally involve the administration of a therapeutic intervention, e.g., a compound, to a subject, e.g., a mammal such as a human, non-human primate, or a rodent (e.g., a rat or mouse). In one embodiment, an acute painful stimulus, e.g., a thermal stimulus, is then administered to the subject. An appropriate time delay may be used in order to achieve appropriate therapeutic effect in the blood and/or CNS prior to administration of the stimulus. Levels of activation of the central nervous system (CNS) of the subject are then measured, typically by a neuroimaging technique such as fMRI. When a therapeutic intervention is being evaluated for efficacy against the functional illness, the levels of activity are examined to determine whether the intervention alters activity in the CNS (FIG. 1). The levels of activity may be determined with reference to one or more specific regions of the CNS, such as those associated, either directly or indirectly with the functional illness, or a general level of activity for the entire CNS, or portion thereof, may be determined without reference to specific anatomical or functional regions. Any alteration in the level of activity may be determined relative to a control, such as levels of activity in a subject treated with placebo or a therapeutic intervention with known efficacy against the functional illness. The method is advantageous in that the subject need not be suffering from the functional illness in order to determine the efficacy of a therapeutic intervention for the illness. […]
The present invention typically employs an imaging technique for measuring the level of activation of the CNS, e.g., by determining blood flow in the CNS. […] In addition, the imaging methods may also be employed to determine a general level of activation for the CNS, e.g., measured as the total number of activated voxels., without regard to the specific regions involved. […]

In the case of `O=C1CN=C(c2ccccc2Cl)c2cc([N+](=O)[O-])ccc2N1` [clonazepam], the “Efficacy in neuropathic pain” value [1] is given as “no efficacy”.

For `NCC1(CC(=O)O)CCCCC1` [gabapentin], the “Overall level of CNS activation (fMRI)” value [2] is listed as “decreased”, the “Efficacy in neuropathic pain” value [1] is listed as “efficacy” and the “fMRI signal change (CNS activation) following the heat stimulus” value (shortened to “fMRI signal change”) [3] is listed as “decreasing signal change”.

For `CN(C)CCCN1c2ccccc2CCc2ccccc21` [imipramine], the “Efficacy in neuropathic pain” value [1] is listed as “efficacy” and the “fMRI signal change” value [3] is listed as “decreasing signal change”.

For `O=C(c1ccccc1)c1ccc2n1CCC2C(=O)O` (stereo not shown) [ketorolac], the “Efficacy in neuropathic pain” value [1] is listed as “no efficacy”.

In the case of `CS(=O)(=O)c1ccc(C2=C(c3ccccc3)C(=O)OC2)cc1` [rofecoxib], the “Efficacy in neuropathic pain” value [1] is given as “no efficacy”.

In the case of `CC1(C)O[C@@H]2[C@@H](CO[C@@]3(COS(N)(=O)=O)OC(C)(C)O[C@@H]23)O1` [topiramate], the “Efficacy in neuropathic pain” value [1] is given as “efficacy” and the “fMRI signal change” value [3] is given as “decreasing signal change”.
